Results on nine molecules are retold here after ChEMBL document CHEMBL3352148, “Docking based virtual screening and molecular dynamics study to identify potential monoacylglycerol lipase inhibitors” (Bioorg Med Chem Lett, 2014).

A short description of series [1]: Predicted human oral absorption (QikProp). Conditions: in silico.
A short description of series [2]: Retention time of the compound by UPLC-MS/MS method. The class given is physicochemical.
The next series deals with T1, Monoglyceride lipase (Homo sapiens, UniProt Q99685).
T1 sequence (Q99685 whole entry): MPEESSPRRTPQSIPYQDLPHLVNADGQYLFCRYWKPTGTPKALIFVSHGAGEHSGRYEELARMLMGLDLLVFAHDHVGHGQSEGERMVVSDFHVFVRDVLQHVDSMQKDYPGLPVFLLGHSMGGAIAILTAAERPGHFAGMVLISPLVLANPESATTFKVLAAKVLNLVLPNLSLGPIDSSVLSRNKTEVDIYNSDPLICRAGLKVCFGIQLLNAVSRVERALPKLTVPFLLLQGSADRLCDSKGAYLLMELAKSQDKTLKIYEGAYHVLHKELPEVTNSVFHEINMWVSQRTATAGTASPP
Description: Inhibition of human MAGL using 4-Nitrophenylacetate substrate incubated for 15 mins.

Molecules are shown by their SMILES.

Turning to `O=C(NCc1ccc2c(c1)OCO2)[C@H]1CC(=O)N(c2ccc(OCc3ccccc3Cl)cc2)C1`, in series [1], the Fa was 100%.
`Cc1ccc(N2C[C@H](C(=O)NCc3n[nH]c(=O)c4ccccc34)CC2=O)cc1C`: the Fa in series [1] is 77.9%. In series [2], this molecule returned a Retention_time of 1.68 min.
For orientation: IC50 means the midpoint of a concentration-inhibition curve. Read a low IC50 as inhibition by little substance. Turning to `C[C@H]1CCCC[C@@H]1NC(=O)CC[C@@H]1NC(=O)N(CCc2c[nH]c3ccc(F)cc23)C1=O`, the Fa in series [1] is 90.7%. Also, the Retention_time in series [2] is listed as 2.26 min. The same molecule yielded an IC50 at Monoglyceride lipase of over 100 µM.
As for `Cc1cc(C)cc(NC(=O)[C@@H]2CC(=O)N(CCc3c[nH]c4ccc(F)cc34)C2)c1`, in series [1], the Fa was 100%. This molecule also returned a Retention_time in series [2] of 1.55 min.
For `O=C(Cn1nnc2ccccc21)Nc1ccc(-c2nc3ccccc3s2)cc1` the same measures were 100% and 1.72 min.
With `O=C(COc1ccc2ccccc2c1)Nn1ccc2c(nnc3c(-c4ccc(F)cc4)cnn32)c1=O`, in series [1], the Fa is 100%. Also, the Retention_time in series [2] amounted to 1.29 min. The molecule also yielded an IC50 against Monoglyceride lipase of over 100 µM.
Regarding `O=C(NCc1ccc2c(c1)OCO2)[C@@H]1CC(=O)N(c2ccc(OCc3ccccc3Cl)cc2)C1`, in series [2], the Retention_time was 2.01 min.
Take `COc1ccc2cc(-c3nc4sc(C(=O)Nc5ccccc5OC)cc4c(=O)[nH]3)c(=O)oc2c1`: the Fa in series [1] was 80.4%.
For `COc1nn(-c2ccc(NC(=O)OCc3ccccc3)c(C)c2)c(=O)o1`, the IC50 on Monoglyceride lipase worked out at 0.02 µM.
